± gives the expanded uncertainty stated by the source.
What was measured:
[1] = 300.15 K; 101.33 kPa; Liquid; Pycnometric method
[2] = refractive index (Na D-line) (dimensionless); conditions: 300.15 K; 101.33 kPa; Liquid; Standard Abbe refractometry
[3] = relative permittivity at zero frequency (dimensionless); conditions: 300.15 K; 101.33 kPa; Liquid; impedance analyzer

mass density [1] [kg/m3]	refractive index [2]	relative permittivity at zero frequency [3]	Structure (SMILES)
798.5 ± 0.4	1.391 ± 0.001	20.678 ± 0.001	CCCO [propan-1-ol]
779.2 ± 0.4	1.383 ± 0.001	18.562 ± 0.001	CC(C)O [propan-2-ol]

Structure (SMILES)	mass density [1] [kg/m3]	refractive index [2]	relative permittivity at zero frequency [3]
CNc1ccccc1 [N-methylaniline]	979.8 ± 0.6	1.566 ± 0.001	5.878 ± 0.001

— the NIST ThermoML archive (doi:10.1016/j.jct.2011.10.028)
